Common to all, as to assay: NCI-60 cell line screen, 48 h
For test [1], the system named is U251 CNS.
Test [2] deals with UACC-62 melanoma.
Test [3] concerns OVCAR-5 ovarian.
The subject of test [4] is UO-31 renal.
The subject of test [5] is SNB-19 CNS.
The test system of test [6] is NCI-H460 lung.
Test [7] relates to SNB-78 CNS.
The subject of test [8] is CAKI-1 renal.
Test [9] has as its system HOP-92 NSCLC.
Test [10] relates to HCC-2998 colon.

TGI and GI50 data for 16 compounds are collected here from PubChem BioAssay (NCI).

Where “and” joins values, the source holds several entries; their conditions need not be identical. Identical values can stand only once.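 Values below derive from 48-hour exposures of cells grown in 96-well plates, with endpoints linearly interpolated between the two concentrations bracketing the appropriate inhibition level. GI50 marks 50% less growth. TGI: concentration producing complete growth inhibition.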 A value given as a limit tells only on which side of the number the result lay.

In the case of `Cc1cc2c(=O)cc(-c3ccc(Cl)cc3Cl)oc2c(C(=O)O)c1C`, the TGI in test [1], in [2], in [3], in test [4], in test [5] and in [6] was more than 100 µM throughout. Besides, the TGI in [7] and in test [8] was more than 100 µM throughout.
Regarding `C=CCC1=C2CCCCC2CCC1=O` (stereo not given), the TGI in test [1], in test [2], in test [3], in test [4], in [5] and in [6] was more than 100 µM throughout. For the same compound, the TGI in test [7] and in test [8] was more than 100 µM throughout.
As to `Cc1cc2c(=O)cc(-c3ccc(Cl)c(Cl)c3)oc2c(C(=O)O)c1C`, the TGI in test [1], in test [2], in test [3], in [4], in test [5] and in test [6] was more than 100 µM in each case. Moreover, the TGI in [7] and in test [8] was more than 100 µM throughout.
In the case of `Fc1ccc(-c2nn3c(COc4ccccc4Cl)nnc3s2)cc1Oc1ccccc1`, the GI50 in test [9] is 15.2 µM; in test [1] it was 18.4 µM; in test [2], 17.8 µM; in [3] it was 33.2 µM; in test [10], 28.6 µM; in [4], 27.1 µM. Also, the GI50 was 23.4 µM in test [5], 42.6 µM in test [6] and 19.4 µM in test [8]. Besides, the TGI was 45.6 µM in test [9]; 41.2 µM in test [1]; 39 µM in test [2]; 92.7 µM in [3]; 77.4 µM in test [10]; more than 100 µM in test [4]. In addition, the TGI in [5] is 57.6 µM; in test [6], more than 100 µM; in test [8], 44 µM.
Consider `COc1cccc(Nc2ncnn3ccc(CN4CC[C@@H](N)[C@H](O)C4)c23)c1`, for which the GI50 was 0.125 µM and 0.194 µM in [9]; 14.4 µM and > 5.46 µM in [1]; 20.4 µM and > 3.85 µM in test [2]; 0.467 µM and 0.357 µM in [3]; 15.6 µM and > 3.65 µM in test [10]; 0.145 µM and 0.132 µM in test [4]. The GI50 in [5] was 14.4 µM and 8.98 µM; in test [6] it was 18.5 µM and > 4.66 µM; in [8], 0.2 µM and 0.242 µM. Further, the TGI in [9] was 5.21 µM and > 6.86 µM; in [1], 49.3 µM and > 10 µM; in test [2] it was 41.3 µM and > 9.23 µM; in test [3], 32.5 µM and > 10 µM; in test [10], 36.1 µM and > 9.59 µM; in test [4], 5.02 µM and 4.12 µM. Further, the TGI in test [5] is 97.7 µM and > 10 µM; in [6] it was 68.1 µM and > 9.16 µM; in test [8] it was 2.52 µM and > 4.35 µM.
For `NS(=O)(=O)c1ccc(N=Nc2c(O)[nH]c3cccc(CCc4ccncc4)c23)cc1`, the GI50 in [9], in [1], in [2], in test [3], in [10] and in [4] was more than 25 µM throughout. In addition, the GI50 in [5], in test [6] and in [8] was more than 25 µM throughout. Besides, the TGI in [9], in test [1], in test [2], in test [3], in test [10] and in test [4] was more than 25 µM in each case. For the same compound, the TGI in [5], in test [6] and in test [8] was more than 25 µM each time.
On to `Cc1cc(S(=O)(=O)Nc2n[nH]c(-c3ccc(Cl)cc3)c2C#N)c(S)cc1Cl`, for which the GI50 in test [9] is more than 100 µM; in test [1], more than 100 µM; in test [2], more than 100 µM; in [3], more than 100 µM; in [10], 95.5 µM; in test [4], more than 100 µM. The GI50 in test [5] is more than 100 µM; in test [6], more than 100 µM; in test [8], 30.3 µM. In addition, the TGI in test [9], in [1], in test [2], in test [3], in [10] and in test [4] was more than 100 µM in each case. The TGI in test [5], in test [6] and in test [8] was more than 100 µM each time.
Regarding `COc1c(O)cc2c(c1CC=C(C)C)OC(=O)c1c(cc(O)c(CC=C(C)C)c1O)O2`, the GI50 in test [9] is 4.08 µM; in test [1], 4.23 µM; in test [2] it was 3.74 µM; in test [3], 3.89 µM; in [10], 2.56 µM; in test [4], 4.22 µM. In addition, the GI50 in test [5] is 4.5 µM; in test [6], 3.69 µM; in test [8] it was 4.32 µM. Moreover, the TGI turned out to be 7.78 µM in test [9]; 7.75 µM in test [1]; 7.48 µM in [2]; 7.85 µM in test [3]; 5.72 µM in test [10]; 7.79 µM in [4]. Besides, the TGI was 8.51 µM in test [5], 7.29 µM in test [6] and 8.61 µM in test [8].
As for `NC(=S)N/N=C/c1cn(CCCl)c2ccccc12`, the TGI in [9], in test [2], in test [3], in test [4], in test [5] and in test [7] was more than 100 µM each time. In [8], the TGI is more than 100 µM.
As for `O=C(CSc1nc(-c2ccccc2)c(-c2ccccc2)[nH]1)N/N=C/c1ccc([N+](=O)[O-])cc1`, the TGI in test [9] is 29.3 µM; in test [1] it was 27.5 µM; in [4], 29.5 µM; in test [6] it was 43.2 µM; in test [7] it was 62.5 µM.
For the compound `O=C(CSc1nc2ccc([N+](=O)[O-])cc2[nH]1)Nc1ccc([N+](=O)[O-])cc1`, the GI50 in [9] is 0.293 µM; in [1] it was 2.62 µM; in [2] it was 1.36 µM; in [3], 2.78 µM; in test [10], 3 µM; in test [4], 1.4 µM. The figures for the GI50 in [5], in test [6] and in test [8] were 3.02 µM, 2.9 µM and 2.08 µM, respectively. The TGI in test [9] turned out to be 2.22 µM; in [1], 15.5 µM; in test [2] it was 7.52 µM; in test [3], 12.9 µM; in test [10], 15.3 µM; in [4], 8.18 µM. Also, the TGI in test [5] is 18 µM; in test [6], 12.3 µM; in test [8] it was 7.67 µM.
On to `COc1cc2c3c(n(CCCNC(C)(C)CO)c(=O)c2cc1OC)-c1cc2c(cc1C3=O)OCO2`, for which the GI50 in [9] was more than 25.9 µM; in test [1], 0.233 µM; in [2], 0.198 µM; in test [3], 16.3 µM; in [10], 1.39 µM; in test [4] it was 1.96 µM. The GI50 is 1.83 µM in test [5], 1.15 µM in test [6] and 0.446 µM in test [8]. Besides, the TGI in test [9] is more than 53.1 µM; in [1] it was 28.4 µM; in test [2], 5.23 µM; in test [3], 36.8 µM; in test [10] it was 7.87 µM; in test [4] it was more than 55.4 µM. Besides, the TGI in test [5] is more than 61.2 µM; in [6], more than 69.2 µM; in test [8] it was 23.8 µM.
Regarding `CC[C@H]1[C@@H](C)C=C[C@@H](C)N1S(=O)(=O)c1ccc(C)cc1`, the TGI in test [1] is more than 100 µM; in [2], more than 100 µM; in [3] it was more than 100 µM; in test [4] it was 27.5 µM; in [5], 35.3 µM; in test [7], more than 100 µM. In addition, in test [8], the TGI was more than 100 µM.
For `CN(CC(=O)O)S(=O)(=O)c1ccc(Cl)cc1`, the TGI in test [9], in test [1], in [2], in test [3], in test [10] and in [4] was more than 100 µM each time. Further, the TGI in [5], in test [6] and in test [8] was more than 100 µM each time.
As for `O=C(O)c1cc(C(=O)C(=O)c2cc(C(=O)O)c(O)c3ccccc23)c2ccccc2c1O`, the TGI in test [9], in test [1], in test [2], in test [3], in test [10] and in test [4] was more than 100 µM each time. Further, the TGI in test [5], in test [6] and in test [8] was more than 100 µM each time.
`O=C(O)c1ccc(NCn2nc(-c3ccccc3O)oc2=S)cc1O`: the GI50 is more than 100 µM in [9]; 78.1 µM in test [1]; 39.8 µM in test [2]; more than 100 µM in test [3]; more than 100 µM in [10]; more than 100 µM in test [4]. For the same compound, the GI50 in test [5] is more than 100 µM; in test [6] it was 95.6 µM; in test [8], more than 100 µM. The TGI in [9], in test [1], in test [2], in test [3], in [10] and in test [4] was more than 100 µM each time. Further, the TGI in [5], in test [6] and in test [8] was more than 100 µM in each case.
